Laboratory results published in US20230089715A1, “MASITINIB FOR THE TREATMENT OF A MULTIPLE SCLEROSIS PATIENT SUBPOPULATION” (AB SCIENCE, priority 2020, published 2023).

Test system: patients with progressive multiple sclerosis (PPMS or non-active SPMS)
Experiment: Study AB07002: randomized, double-blind, placebo-controlled phase 3 study, overall EDSS change from baseline
Type: in vivo, human
Set-up: key to LSM EDSS, MAS (overall EDSS change from baseline): LS mean EDSS change from baseline; positive value = worsening
Conditions: 4.5 mg/kg/day oral; for ΔEDSS (between group difference, treatment-effect vs placebo) / LSM EDSS, MAS (overall EDSS change from baseline) / R % (relative difference in ΔEDSS with respect to full analysis dataset): 96 weeks; for treatment-effect with respect to placebo (EDSS): non-active SPMS
Procedure: An international, multicenter, randomized, double-blind, placebo-controlled phase 3 study was conducted with the objective to evaluate oral masitinib at a dose of 4.5 mg/kg/day as a treatment for progressive multiple sclerosis (progressive MS), as defined hereinabove. […] Eligible patients were treated for 96 weeks with masitinib at a dose of 4.5 mg/kg/day (mg per kilo body weight per day) or with placebo. Primary endpoint was overall EDSS change from baseline using a repeated analysis of covariance model (i.e., ANCOVA GEE model on all measurements from week 12 (W12) to week 96 (W96)). Results are expressed as least-squares means difference, illustrating the progression of EDSS score, that is to say the change over time in the EDSS score or in other words the difference between the EDSS score at baseline and the EDSS score after treatment with masitinib or with placebo (a positive value indicates a worsening of the patient). Treatment-effect is reported as between-group difference (ΔLSM, negative value indicates a beneficial effect of treatment with masitinib as compared to treatment with placebo). […] Patients suffering from a disease other than MS that would better explain their neurological clinical signs and symptoms and/or lesions observed with magnetic resonance imaging (“MRI lesions”) were excluded. Subpopulation analyses of primary endpoint data from study AB07002 assessed the impact of the clinical markers ‘time from onset’ with respect to baseline (i.e., date of treatment initiation), derived from the estimated date of first clinical MS symptom(s), or ‘time from diagnosis’ with respect to baseline (i.e., date of treatment initiation), on masitinib efficacy in patients with progressive MS (see Example 3). ‘Time from onset’ is derived from the date (year/month/day, year/month, or year) of first clinical symptom(s) with duration calculated from date of treatment initiation. The date of first symptom(s) is typically determined retrospectively from medical history, for example from medical records and patient/caregiver historical recall of MS related symptoms following a clinically definite diagnosis. Imputation of missing data can be handled using various methods, one example of which is the following approach: if the information regarding day is missing, the day is considered to be the last day of the month; if the day and month are missing, the day is considered to be the last day of June. ‘Time from diagnosis’ of progressive MS, is ideally based on a clinically definite diagnosis of progressive MS as determined by a MS specialist neurologist. In practice it is derived from the date (year/month/day, year/month, or year) of first clinically definite diagnosis of progressive MS, i.e., PPMS or non-active SPMS, with duration calculated from date of treatment initiation. At the time of MS diagnosis, a provisional disease course should be specified (relapsing-remitting, primary progressive, or secondary progressive) and whether the course is active or not (non-active) and progressive or not based on the previous year's history. The phenotype should be periodically re-evaluated based on accumulated information. Comparison of subpopulation analyses with respect to the corresponding full analysis dataset (see Table 4) is reported as relative difference in ΔEDSS (R %). A large positive R % value indicates a subpopulation that receives greater benefit from masitinib treatment, while a negative R % value indicates a diminished treatment-effect or lack of discernable treatment-effect in the subpopulation.

[1] = nSPMS, T(diag) > 2 Y and T(onset) > 5 Y

Q: `Cc1ccc(NC(=O)c2ccc(CN3CCN(C)CC3)cc2)cc1Nc1nc(-c2cccnc2)cs1` [masitinib, 4-(4-methylpiperazin-1-ylmethyl)-N-[4-methyl-3-(4-pyridin-3ylthiazol-2-ylamino)phenyl]benzamide] was tested. Which “ΔEDSS (between group difference, treatment-effect vs placebo)” value (Progressive MS, T(diag) ≤ 1 Y) did it give?
A: 0.261

Q: What about the “LSM EDSS, MAS (overall EDSS change from baseline)” value (Progressive MS, T(diag) ≤ 2 Y) of the same molecule?
A: 0.163

Q: What about the “LSM EDSS, MAS (overall EDSS change from baseline)” value (Progressive MS, T(diag) ≤ 3 Y) of the same molecule?
A: 0.056

Q: What about the “ΔEDSS (between group difference, treatment-effect vs placebo)” value (Progressive MS, T(diag) ≤ 3 Y) of the same molecule?
A: 0.053

Q: And the “LSM EDSS, MAS (overall EDSS change from baseline)” value (Progressive MS, T(diag) ≤ 4 Y)?
A: 0.075

Q: And the “ΔEDSS (between group difference, treatment-effect vs placebo)” value (Progressive MS, T(diag) ≤ 4 Y)?
A: −0.028

Q: What about the “LSM EDSS, MAS (overall EDSS change from baseline)” value (Progressive MS, T(onset) > 1 Y) of the same molecule?
A: 0.012

Q: What about the “R % (relative difference in ΔEDSS with respect to full analysis dataset)” value (Progressive MS, T(onset) > 1 Y) of the same molecule?
A: −5%

Q: What about the “ΔEDSS (between group difference, treatment-effect vs placebo)” value (Progressive MS, T(onset) > 1 Y) of the same molecule?
A: −0.094

Q: What about the “LSM EDSS, MAS (overall EDSS change from baseline)” value (Progressive MS, T(onset) > 2 Y) of the same molecule?
A: 0.004

Q: What about the “R % (relative difference in ΔEDSS with respect to full analysis dataset)” value (Progressive MS, T(onset) > 2 Y) of the same molecule?
A: 1%

Q: And the “ΔEDSS (between group difference, treatment-effect vs placebo)” value (Progressive MS, T(onset) > 2 Y)?
A: −0.100

Q: And the “LSM EDSS, MAS (overall EDSS change from baseline)” value (Progressive MS, T(onset) > 3 Y)?
A: −0.010

Q: What about the “R % (relative difference in ΔEDSS with respect to full analysis dataset)” value (Progressive MS, T(onset) > 3 Y) of the same molecule?
A: 20%

Q: And the “ΔEDSS (between group difference, treatment-effect vs placebo)” value (Progressive MS, T(onset) > 3 Y)?
A: −0.119

Q: What about the “LSM EDSS, MAS (overall EDSS change from baseline)” value (Progressive MS, T(onset) > 4 Y) of the same molecule?
A: −0.027

Q: What about the “R % (relative difference in ΔEDSS with respect to full analysis dataset)” value (Progressive MS, T(onset) > 4 Y) of the same molecule?
A: 29%

Q: What about the “ΔEDSS (between group difference, treatment-effect vs placebo)” value (Progressive MS, T(onset) > 4 Y) of the same molecule?
A: −0.128

Q: What about the “LSM EDSS, MAS (overall EDSS change from baseline)” value (Progressive MS, T(onset) > 5 Y) of the same molecule?
A: −0.031

Q: What about the “ΔEDSS (between group difference, treatment-effect vs placebo)” value (Progressive MS, T(onset) > 5 Y) of the same molecule?
A: −0.156

Q: And the “R % (relative difference in ΔEDSS with respect to full analysis dataset)” value (Progressive MS, T(onset) > 5 Y, 4.5 mg/kg/day)?
A: 58%

Q: And the “LSM EDSS, MAS (overall EDSS change from baseline)” value (Progressive MS, T(onset) ≤ 3 Y)?
A: 0.106

Q: And the “ΔEDSS (between group difference, treatment-effect vs placebo)” value (Progressive MS, T(onset) ≤ 3 Y)?
A: 0.346

Q: What about the “LSM EDSS, MAS (overall EDSS change from baseline)” value (Progressive MS, T(onset) ≤ 4 Y) of the same molecule?
A: −0.000

Q: And the “ΔEDSS (between group difference, treatment-effect vs placebo)” value (Progressive MS, T(onset) ≤ 4 Y)?
A: 0.146

Q: And the “LSM EDSS, MAS (overall EDSS change from baseline)” value (Progressive MS, T(onset) ≤ 5 Y)?
A: 0.259

Q: What about the “LSM EDSS, MAS (overall EDSS change from baseline)” value (Progressive MS, complement T(diag) ≤ 2 Y or T(onset) ≤ 5 Y) of the same molecule?
A: 0.173

Q: What about the “LSM EDSS, MAS (overall EDSS change from baseline)” value (Progressive MS, full analysis dataset) of the same molecule?
A: 0.008

Q: And the “ΔEDSS (between group difference, treatment-effect vs placebo)” value (Progressive MS, full analysis dataset, 4.5 mg/kg/day)?
A: −0.099

Q: What about the “ΔEDSS (between group difference, treatment-effect vs placebo)” value (Progressive MS, full analysis dataset, listed as Masitinib, 4.5 mg/kg/day) of the same molecule?
A: significant slowing of EDSS progression

Q: And the “LSM EDSS, MAS (overall EDSS change from baseline)” value (nSPMS, T(diag) > 1 Y)?
A: −0.039

Q: What about the “R % (relative difference in ΔEDSS with respect to full analysis dataset)” value (nSPMS, T(diag) > 1 Y) of the same molecule?
A: 6%

Q: And the “ΔEDSS (between group difference, treatment-effect vs placebo)” value (nSPMS, T(diag) > 1 Y)?
A: −0.101

Q: What about the “LSM EDSS, MAS (overall EDSS change from baseline)” value [1] of the same molecule?
A: −0.051

Q: And the “ΔEDSS (between group difference, treatment-effect vs placebo)” value [1]?
A: −0.118

Q: And the “R % (relative difference in ΔEDSS with respect to full analysis dataset)” value (nSPMS, T(diag) > 2 Y and T(onset) > 5 Y, 4.5 mg/kg/day)?
A: 24%

Q: What about the “LSM EDSS, MAS (overall EDSS change from baseline)” value (nSPMS, T(diag) > 2 Y) of the same molecule?
A: −0.039

Q: What about the “R % (relative difference in ΔEDSS with respect to full analysis dataset)” value (nSPMS, T(diag) > 2 Y) of the same molecule?
A: 7%

Q: What about the “LSM EDSS, MAS (overall EDSS change from baseline)” value (nSPMS, T(diag) > 3 Y) of the same molecule?
A: −0.045

Q: And the “R % (relative difference in ΔEDSS with respect to full analysis dataset)” value (nSPMS, T(diag) > 3 Y)?
A: 13%

Q: What about the “LSM EDSS, MAS (overall EDSS change from baseline)” value (nSPMS, T(diag) > 4 Y) of the same molecule?
A: −0.050

Q: What about the “R % (relative difference in ΔEDSS with respect to full analysis dataset)” value (nSPMS, T(diag) > 4 Y) of the same molecule?
A: 29%

Q: And the “ΔEDSS (between group difference, treatment-effect vs placebo)” value (nSPMS, T(diag) > 4 Y)?
A: −0.123

Q: What about the “LSM EDSS, MAS (overall EDSS change from baseline)” value (nSPMS, T(diag) ≤ 4 Y) of the same molecule?
A: 0.036

Q: And the “ΔEDSS (between group difference, treatment-effect vs placebo)” value (nSPMS, T(diag) ≤ 4 Y)?
A: −0.004

Q: And the “LSM EDSS, MAS (overall EDSS change from baseline)” value (nSPMS, T(onset) > 1 Y)?
A: −0.035

Q: And the “R % (relative difference in ΔEDSS with respect to full analysis dataset)” value (nSPMS, T(onset) > 1 Y)?
A: 0%

Q: What about the “ΔEDSS (between group difference, treatment-effect vs placebo)” value (nSPMS, T(onset) > 1 Y) of the same molecule?
A: −0.095

Q: What about the “LSM EDSS, MAS (overall EDSS change from baseline)” value (nSPMS, T(onset) > 2 Y) of the same molecule?
A: −0.035

Q: What about the “R % (relative difference in ΔEDSS with respect to full analysis dataset)” value (nSPMS, T(onset) > 2 Y) of the same molecule?
A: 0%

Q: And the “ΔEDSS (between group difference, treatment-effect vs placebo)” value (nSPMS, T(onset) > 2 Y)?
A: −0.095

Q: What about the “LSM EDSS, MAS (overall EDSS change from baseline)” value (nSPMS, T(onset) > 3 Y) of the same molecule?
A: −0.037

Q: What about the “R % (relative difference in ΔEDSS with respect to full analysis dataset)” value (nSPMS, T(onset) > 3 Y) of the same molecule?
A: 7%

Q: And the “ΔEDSS (between group difference, treatment-effect vs placebo)” value (nSPMS, T(onset) > 3 Y)?
A: −0.102

Q: And the “LSM EDSS, MAS (overall EDSS change from baseline)” value (nSPMS, T(onset) > 4 Y)?
A: −0.040

Q: And the “R % (relative difference in ΔEDSS with respect to full analysis dataset)” value (nSPMS, T(onset) > 4 Y)?
A: 16%

Q: And the “ΔEDSS (between group difference, treatment-effect vs placebo)” value (nSPMS, T(onset) > 4 Y)?
A: −0.110

Q: And the “LSM EDSS, MAS (overall EDSS change from baseline)” value (nSPMS, T(onset) > 5 Y)?
A: −0.050

Q: And the “R % (relative difference in ΔEDSS with respect to full analysis dataset)” value (nSPMS, T(onset) > 5 Y)?
A: 23%

Q: What about the “LSM EDSS, MAS (overall EDSS change from baseline)” value (nSPMS, full analysis dataset) of the same molecule?
A: −0.035

Q: What about the “ΔEDSS (between group difference, treatment-effect vs placebo)” value (nSPMS, full analysis dataset, 4.5 mg/kg/day) of the same molecule?
A: −0.095

Q: And the “ΔEDSS (between group difference, treatment-effect vs placebo)” value (nSPMS, full analysis dataset, listed as Masitinib, 4.5 mg/kg/day)?
A: significant slowing of EDSS progression

Q: What about the “treatment-effect with respect to placebo (EDSS)” value (time from diagnosis to treatment initiation of no more than 2 year) of the same molecule?
A: no discernable treatment-effect

Q: What about the “treatment-effect with respect to placebo (EDSS)” value (time from onset to treatment initiation of no more than 5 year) of the same molecule?
A: no discernable treatment-effect
